According to US7875604B2, “Compounds that inhibit HIV particle formation” (University of Virginia Patent Foundation, priority 2004, dated 2011):
Like-named read-outs stand apart in the source and are kept apart here.

Assays:
Assay type in all cases: cell-based
U1 cells = assay: MTS staining for cell viability in U1 cell assay; conditions: analogs, Table 8, MTS, read-out: TC50 (the source's name)
Protocol: (§1) At the time of the assay, cells were collected by centrifugation and counted by hemacytometer. If cell viability by Trypan Blue dye exclusion was less than 70% the assay was terminated. The cells were adjusted to 5×10^4 cells/mL and 100 μL placed in 96 well plates with 100 μL media containing a final concentration of 5 ng/mL TNF-α and the test compound. Cultures were incubated for 3 days and supernatants harvested. Compound toxicity was determined by MTS dye reduction. Virus expression was measured by supernatant reverse transcriptase activity.
(§2) At assay termination, the assay plates were stained with the soluble tetrazolium-based dye MTS (CellTiter 96 Reagent, Promega) to determine cell viability and quantify compound toxicity as described for the PBMC assay.
(§3) Compounds were tested in the U1 latency assay using the maximum high-test concentration possible based on the supplied stocks which are listed in table 3. Compounds were tested using the maximum high-test concentration possible based on the supplied stocks. Compounds were prepared at a 2× high-test concentration by combining drug stock with tissue culture media at a ratio of 5 μL of drug to 995 μL of media. This 2× high-test sample was subsequently serially diluted in tissue culture media using 1/2 log dilutions. This series of 2× concentrated drug was subsequently diluted 1:1 by combining with an equal volume of cells in media in the 96-well plates used for the assay. Temacrazine a known inhibitor of HIV transcription was used as a control compound that is active in the post-integration part of the HIV life cycle.
(§4) Compounds were tested using the maximum high-test concentration possible based on the supplied stocks. Compounds were prepared at a 2× high-test concentration by combining drug stock with tissue culture media at a ratio of 5 μL of drug to 995 μL of media. This 2× high-test (HT) sample was subsequently serially diluted in tissue culture media using 1/2 log dilutions. This series of 2× concentrated drug was subsequently diluted 1:1 by combining with an equal volume of cells in media in the 96-well plates used for the assay.

[1] = system: U1 cells latently infected with HIV-1; assay: U1 latency activation assay (TNF-α induced, supernatant reverse transcriptase); conditions: U1 cell assay
Protocol: U1 cells were obtained from the AIDS Research and Reference Reagent Program and maintained under standard culture conditions in RPMI 1640 supplemented with 10% fetal bovine serum (heat inactivated), 2 mM L-glutamine, 100 U/mL penicillin and 100 μg/mL streptomycin. U1 cells are derived from the histocytic leukemia cell line U937, and contain an integrated copy of a cytokine and/or phorbol inducible provirus (HIV-1IIIB). Cultures were maintained in such a way as to ensure exponential growth of the populations. Addition of TNF-α to the cell culture induces HIV-1, so that inhibition of virus production indicates an inhibition of a post-integration function of the HIV-1 life cycle. This is where an inhibitor of Rev function would be expected to act. […]
as §1
Reverse transcriptase was assayed to measure virus particle release as described above for the PBMC assay.
as §3, §4

[2] = MTS staining for cell viability in U1 cell assay; conditions: human, U1 cells stimulated with TNF-α, read-out: TC50
Protocol: as §1, §2, §3, §4

| Structure (SMILES) | CC50 (U1 cells) | IC50 ([1]; analogs, Table 8) | also measured |
| --- | --- | --- | --- |
| Cc1ccc(-c2cc(C(F)(F)F)c3c(N)c(C(N)=O)sc3n2)cc1 [Compound 332] | 22.5 µM | > 75 µM |  |
| NC(=O)c1sc2nc(Cc3ccccc3)cc(C(F)(F)F)c2c1N [Compound 334] | > 75 µM | 2.37 µM |  |
| COc1ccc(-c2cc(-c3ccccc3)nc3sc(C(N)=O)c(N)c23)cc1 [Compound 335] | 53.9 µM | 1.41 µM |  |
| CC1CCc2nc3sc(C(N)=O)c(N)c3cc2C1 (stereo not drawn) [Compound 336] | > 75 µM | 2.92 µM |  |
| NC(=O)c1sc2nc3ccccc3cc2c1N [Compound 337] | > 75 µM | 2.4 µM |  |
| CCOC(=O)c1c(C)nc2sc(C(N)=O)c(N)c2c1-c1ccccc1 [Compound 338] | > 75 µM | 5.23 µM |  |
| COc1ccc(-c2cc(-c3ccc(OC)cc3)c3c(N)c(C(N)=O)sc3n2)cc1 [Compound 339] | 38.3 µM | 1.28 µM |  |
| CCOC(=O)c1sc(Cl)nc1C(F)(F)F [Compound 411] | > 75 µM | > 75 µM |  |
| O=C(Nc1ccccc1)c1sc(Cl)nc1C(F)(F)F [Compound 412] | 51.7 µM | 16.7 µM |  |
| O=C(Nc1cccc(F)c1)c1sc(Cl)nc1C(F)(F)F [Compound 413] | 50.7 µM | 20.7 µM |  |
| O=C(Nc1cccc(C(F)(F)F)c1)c1sc(Cl)nc1C(F)(F)F [Compound 414] | 14.7 µM | 14.5 µM |  |
| O=C(Nc1ccccc1F)c1sc(Cl)nc1C(F)(F)F [Compound 415] | 51.2 µM | 37.3 µM |  |
| Cc1ccc(NC(=O)c2sc(Cl)nc2C)cc1C [Compound 416] | > 75 µM | 0.767 µM |  |
| Cc1ccc(NC(=O)c2sc(Cl)nc2C)cc1 [Compound 417] | 51.9 µM | 1.62 µM |  |
| Cc1nc(Cl)sc1C(=O)Nc1ccc(C(F)(F)F)cc1 [Compound 418] | > 75 µM | 2.18 µM |  |
| Cc1nc(Cl)sc1C(=O)Nc1ccc(C(C)(C)C)cc1 [Compound 420] | > 75 µM | 6.8 µM |  |
| N#Cc1ccc(NC(=O)c2sc(Cl)nc2-c2ccccc2)cc1 [Compound 421] | > 75 µM | > 75 µM |  |
| Cc1ccc(NC(=O)c2sc(Cl)nc2-c2ccccc2)cc1C [Compound 422] | > 75 µM | 14.3 µM |  |
| Cc1ccc(NC(=O)c2sc(Cl)nc2-c2ccccc2)c(C)c1 [Compound 423] | > 75 µM | 42.4 µM |  |
| COc1ccccc1NC(=O)c1cc(Cl)nnc1Cl [Compound 511] | 17.3 µM | 14.3 µM |  |
| O=C(c1cc(Cl)nnc1Cl)N1CCOCC1 [Compound 512] | > 75 µM | 26.3 µM |  |
| CN1CCN(C(=O)c2cc(Cl)nnc2Cl)CC1 [Compound 513] | > 75 µM | 7.05 µM |  |
| O=C(c1cc(Cl)nnc1Cl)N1CCCC1 [Compound 514] | > 75 µM | > 75 µM |  |
| O=C(NCc1ccccn1)c1cc(Cl)nnc1Cl [Compound 515] | > 75 µM | 13.6 µM |  |
| Oc1nc(S)ncc1-c1ccccc1 [Compound 612] | > 75 µM | > 75 µM |  |

| Structure (SMILES) | CC50 (U1 cells) | IC50 ([1]; analogs, Table 8) | also measured |
| --- | --- | --- | --- |
| Oc1nc(S)nc(O)c1-c1ccccc1 [Compound 613] | > 75 µM | > 75 µM |  |
| O=[N+]([O-])c1ccc(-c2cnc(NO)nc2)cc1 [Compound 614] | > 75 µM | > 75 µM |  |
| COc1ccc(-c2cnc(S(C)(=O)=O)nc2)cc1 [Compound 615] | > 75 µM | 11.9 µM |  |
| CSc1ncc2c(n1)[nH]c1ccccc12 [Compound 616] | > 75 µM | 0.915 µM |  |
| COc1ccc(-c2cnc(OC(C)(C)C)nc2OC(C)(C)C)cc1OC [Compound 617] | > 75 µM | > 75 µM |  |
| COc1ccc(-c2cnc(OC(C)(C)C)nc2OC(C)(C)C)cc1 [Compound 618] | 53.6 µM | 18.3 µM |  |
| Cc1cccc(-c2nc(Nc3ccc(I)cc3)c3ccccc3n2)c1 [Compound 718] | 50.1 µM | 47.2 µM |  |
| Cc1ccc(Nc2ncnc3ccccc23)cc1C [Compound 719] | > 75 µM | 1.73 µM |  |
| CCOC(=O)c1ccc(Nc2ncnc3ccccc23)cc1 [Compound 720] | > 75 µM | 3.66 µM |  |
| FC(F)(F)c1cccc(Nc2nc(-c3ccccc3)nc3ccccc23)c1 [Compound 722] | 35 µM | 21.9 µM |  |
| COC(=O)c1ccc(Nc2nc(-c3ccccc3Cl)nc3ccccc23)cc1 [Compound 728] | 17.5 µM | 13.4 µM |  |
| Cc1ccc(-c2nc(Nc3ccc(I)cc3)c3ccccc3n2)cc1 [Compound 729] | > 75 µM | > 75 µM |  |
| CCOc1ccccc1Nc1nc(-c2ccc(C)cc2)nc2ccccc12 [Compound 730] | > 75 µM | > 75 µM |  |
| Clc1ccccc1Nc1nc(-c2ccc(Br)cc2)nc2ccccc12 [Compound 731] | > 75 µM | 1.65 µM |  |
| Brc1ccc(Nc2nc(-c3ccncc3)nc3ccccc23)cc1 [Compound 734] | > 12.5 µM | 4.07 µM |  |
| Fc1ccccc1-c1nc(Nc2cccc(C(F)(F)F)c2)c2ccccc2n1 [Compound 748] | 33 µM | 10.5 µM |  |
| COc1ccc(Nc2nc(-c3ccccc3F)nc3ccccc23)cc1 [Compound 749] | 19.5 µM | 2.05 µM |  |
| Oc1ccccc1-c1nc(Nc2ccc(F)c(F)c2)c2ccccc2n1 [Compound 750] | > 75 µM | > 75 µM |  |
| COc1ccccc1Nc1nc(-c2ccccc2O)nc2ccccc12 [Compound 751] | > 75 µM | 71.4 µM |  |
| COC(=O)c1cccc(Nc2nc(-c3ccccc3O)nc3ccccc23)c1 [Compound 752] | > 75 µM | > 75 µM |  |
| Clc1ccc(-c2nc(Nc3ccc(Oc4ccccc4)cc3)c3ccccc3n2)cc1 [Compound 753] | 48 µM | 47.1 µM |  |
| CC(=O)Nc1ccc(Nc2nc(-c3ccccc3)nc3ccccc23)cc1 [Compound 754] | 15.1 µM | 3.69 µM |  |
| CC(=O)c1ccc(Nc2nc(-c3ccccc3)nc3ccccc23)cc1 [Compound 755] | > 75 µM | 1.78 µM |  |
| Cc1nc(Oc2ccccc2)c2ccccc2n1 [Compound 756] | 52 µM | 1.74 µM |  |
| O=c1c2ccccc2n2nnc3ccc(NCCCN4CCN(CCCNc5ccc6nnn7c8ccccc8c(=O)c5c67)CC4)c1c32 [Temacrazine, reference compound] |  |  | CC50 at 3 days ([2]; Table 6, MTS): > 500 nM; CC50 at 3 days ([2]; Table 8, control, MTS): > 500 nM; IC50 ([1]; Human immunodeficiency virus 1, 72 h, Table 6, 5 ng/mL TNF-α, 3 days, RT activity): 0.002 µM; TI (TC50/IC50) ([1]; Table 6): >250 |
